How the values were obtained:
[1] = test system: HDACs from Hela cell nuclear extract; assay type: biochemical; settings: HeLa cell nuclear extract; tested at 10 μM and 25 μM; FIG. 2B
Procedure: (§1) FIGS. 2A-2F show measurement of intrinsic and in situ HDACi activities. […] IC50 values were calculated from nonlinear regression plots using GraphPad Prism5 software. […] Recombinant HDAC6 was incubated with each drug at the indicated concentrations. IC50 values were calculated from nonlinear regression plots using GraphPad Prism5 software.
(§2) HDAC activity assay. In vitro HDAC inhibition was measured by using the HDAC fluorimetric assay/drug discovery Kit (Enzo Life Sciences, BML-AK500) and the HDAC6 fluorometric drug discovery kit (Enzo Life Sciences, BML-AK516) following the manufacturer's protocols and instructions. IC50 values were calculated from nonlinear […] plots using GraphPad Prism5 software.
(§3) HDAC1 and HDAC2 are enriched in nuclear extracts whereas HDAC6 is a cytosolic enzyme that is the principal modulator of the acetylation status of Hsp90. […] Again, TSA served as the positive control in FIG. 2D.

[2] = molecular target: T1, human recombinant HDAC6 (Homo sapiens, UniProt Q9UBN7); assay: HDAC6 fluorometric assay, recombinant enzyme; assay type: biochemical; settings: tested at 10 μM and 25 μM; FIG. 2D
T1 construct: purchased Enzo Life Sciences BML-AK516
T1 sequence (Q9UBN7 1-1215): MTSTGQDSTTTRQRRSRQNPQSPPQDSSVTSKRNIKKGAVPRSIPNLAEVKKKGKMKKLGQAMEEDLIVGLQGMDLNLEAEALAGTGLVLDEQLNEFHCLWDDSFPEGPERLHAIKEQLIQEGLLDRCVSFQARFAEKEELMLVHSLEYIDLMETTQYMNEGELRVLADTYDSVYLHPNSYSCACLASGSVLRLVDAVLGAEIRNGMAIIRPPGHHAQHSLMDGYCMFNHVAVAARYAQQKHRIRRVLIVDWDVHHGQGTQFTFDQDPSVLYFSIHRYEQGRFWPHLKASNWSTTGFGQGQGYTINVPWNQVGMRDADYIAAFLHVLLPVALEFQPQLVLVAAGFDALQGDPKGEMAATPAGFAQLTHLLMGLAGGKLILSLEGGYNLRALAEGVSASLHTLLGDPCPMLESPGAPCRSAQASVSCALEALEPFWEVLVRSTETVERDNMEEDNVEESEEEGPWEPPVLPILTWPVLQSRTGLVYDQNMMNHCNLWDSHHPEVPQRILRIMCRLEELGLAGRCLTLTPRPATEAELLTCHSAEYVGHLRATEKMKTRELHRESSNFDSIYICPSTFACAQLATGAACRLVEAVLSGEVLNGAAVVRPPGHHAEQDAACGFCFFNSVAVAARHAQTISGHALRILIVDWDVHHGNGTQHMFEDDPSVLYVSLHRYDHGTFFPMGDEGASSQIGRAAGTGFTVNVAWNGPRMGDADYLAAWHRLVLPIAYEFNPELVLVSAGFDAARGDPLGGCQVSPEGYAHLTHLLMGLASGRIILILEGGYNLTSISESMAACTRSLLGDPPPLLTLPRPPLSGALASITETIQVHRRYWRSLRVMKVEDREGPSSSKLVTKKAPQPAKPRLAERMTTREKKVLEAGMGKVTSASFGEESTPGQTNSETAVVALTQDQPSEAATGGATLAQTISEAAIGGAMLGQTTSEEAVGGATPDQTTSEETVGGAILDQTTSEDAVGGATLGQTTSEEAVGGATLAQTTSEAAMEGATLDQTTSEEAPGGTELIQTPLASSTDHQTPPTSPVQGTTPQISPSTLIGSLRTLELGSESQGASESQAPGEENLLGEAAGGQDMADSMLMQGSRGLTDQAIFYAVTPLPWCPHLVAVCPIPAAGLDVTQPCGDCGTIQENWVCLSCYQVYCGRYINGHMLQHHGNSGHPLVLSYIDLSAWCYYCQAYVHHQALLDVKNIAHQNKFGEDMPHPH
Procedure: as §1, §2, §3

[3] = test system: C4-2 cells; assay: MTT cell viability assay, C4-2 cells; assay type: cell-based; settings: MTT, Day 3; up to 10 μM; FIG. 6A
Procedure: (§4) (6A) C4-2 cells were seeded in 96-well plates and 24 h later, they were treated with the indicated compounds (0.1 μM-10 μM) or with vehicle (DMSO). Cell viability was measured by the MTT assay on Days 0 and 3 of treatment. EC50 values were calculated from nonlinear regression plots using GraphPad Prism5 software. […] Cell viability was measured by the MTT assay on Days 0 and 3 of treatment. […] Cell viability was measured by the MTT assay on Days 0 and 3 of treatment. […] (6D) 22Rv1 cells were infected with AR shRNA lentivirus, or control shRNA. 72 h after infection, cells were plated and viable cells were measured by the MTT assay on the indicated days (6D, bottom). Cells were also harvested for western blot analysis and probed with antibody to AR, which was also reactive with the AR splice variant AR-V7 (6D, top). (6E) 22Rv1 cells were seeded in 96-well plates and 24 h later, they were treated with the indicated compounds (0.1 μM-10 μM) or with vehicle (DMSO). Cell viability was measured by the MTT assay on Days 0 and 3 of treatment. EC50 values were calculated from nonlinear regression plots using GraphPad Prism5 software.
(§5) Cell Proliferation Assay. Cells were trypsinized and 6000 cells/well were seeded in 96-well plates coated with poly-D-lysine. The cells were seeded in phenol red-free medium supplemented with 10% FBS, 100 units/ml penicillin, 100 μg/ml streptomycin, 2 mM L-glutamine mixture and sodium pyruvate (1 mM) for C4-2 cells and phenol red-free medium supplemented with 10% FBS, 100 units/ml penicillin, 100 μg/ml streptomycin and 2 mM L-glutamine mixture for 22Rv1 cells. The cells were grown at 37° C. in 5% CO2. Twenty four hours after seeding in the 96-well plates, the cells were treated with indicated compound or DMSO (vehicle). The culture medium was not changed during the time course of the assay. On Day zero and on Day 3, cell viability was determined using the MTT assay. MTT (10 μL, 5 mg/mL) was added to each well and incubated for 2 h at 37° C. The formazan crystal sediments were dissolved in 100 μL of DMSO, and the absorbance at 570 nm was measured using the BioTek Synergy 2 Microplate Reader (BioTek, Winooski, Vt.). […] IC50 values were calculated from nonlinear […] plots using GraphPad Prism5 software.

[4] = test system: 22Rv1 cells; assay: MTT cell viability assay, 22Rv1 cells; assay type: cell-based; settings: Day 3, 0.1 μM-10 μM, FIG. 6E
Procedure: as §4, §5

With `CCOC(=O)/C=C/c1ccc(N2C(=S)N(c3ccc(C#N)c(C(F)(F)F)c3)C(=O)C2(C)C)cc1F` [Compound 1002, (E)-ethyl-3-(4-(3-(4-cyano-3-(trifluoromethyl)phenyl)-5,5-dimethyl-4-oxo-2-thioxoimidazolidin-1-yl)-2-fluorophenyl)acrylate] the “inhibition of nuclear HDAC activity” value [1] was “did not inhibit nuclear HDAC activity even up to a concentration of 25 μM”, the “inhibitory activity against HDAC6” value [2] was “did not show significant inhibitory activity” and the “effect on C4-2 cell growth” value [3] was “unable to appreciably inhibit C4-2 cell growth”. For the same molecule, the “effect on growth of 22Rv1 cells” value [4] was “modest effect at high concentrations”.
